In general, IC50 refers to the concentration needed to halve the response being measured. Lower therefore signals greater potency in that assay.

One test addresses avidin (Gallus gallus, UniProt P02701). The following applies: association constant from literature (Hermanson); cited from earlier work.
The test system of test [1] is anti-3-Nitrotyrosine antibody. The experiment in a line: Lateral flow assay for NHPA in synthetic urine. It counts as binding. As to the method:
The LFA was assembled using a nitrocellulose membrane attached to a plastic backing card (Figure 13). An anti-3-Nitrotyrosine antibody line was printed at 1mg/mL concentration, the line consisted of 20 lines, each with 25 µm width, using 0.1 µL antibody solution/cm/line. A streptavidin line was printed at 1mg/mL concentration and consisted of 10 lines, each with 50 µm width, using 0.1 µL streptavidin solution/cm/line. The membrane was sealed in a foil bag with desiccant silica gel sachets and stored in the fridge until used.
On the test day the wicking pad (5 x 17 mm) was attached to the membrane (2 mm overlap) and the plastic card was cut into strips (5 mm width). Glass fibre conjugate pads (5 x 7 mm) were soaked in AuNP-BSA-biotin-NHPA conjugate (0.5 OD) and dried in a desiccator for 2 hours. The conjugate pad was then attached to the membrane (2mm overlap). […]
Different concentrations of NHPA in synthetic urine (200 µL) were prepared in respective wells of a low-binding 96-well microplate. […] The images of the test strips (Figure 14) were analysed by ImageJ software. […] The grey level of the pixels in each test line was measured and subtracted from the background to calculate each line intensity and its dependence on the NHPA concentration (Figure 15b).

In test [2] the test system is anti-caffeine antibody.
Description: (§1) A 96-well ELISA plate was coated with anti-caffeine antibody (50 µL, 6 µg/mL, in PBS buffer, pH 7.4) by incubating the plate for 1 hour at RT. The plate was blocked with 2% (w/v) BSA in PBS with 0.05% (v/v) Tween-20, pH 7.4, for 2 hours at RT. BSA-biotin-caffeine conjugate (50 µL) at different concentrations were added to the plate and incubated for 1 hour at RT. HRP-labelled avidin (50 µL, 1:5000 dilution in blocking buffer) was added and the plate was incubated for 1 hour in the dark at RT. After thorough washing of the plate, the colour was developed by adding 3,3',5,5'-tetramethylbenzidine (TMB) liquid substrate system (50 µL). The reaction was stopped by the addition of 1 M H2SO4 (50 µL) and the absorbance at 450 nm was recorded.
(§2) Same general protocol as direct ELISA. Plate was coated with anti-caffeine antibody (50 µL, 6 µg/mL, in PBS buffer, pH 7.4) and blocked with 2% (w/v) BSA in PBS with 0.05% (v/v) Tween-20, pH 7.4. BSA-biotin-caffeine conjugate (25 µL, 40 mg/mL) was mixed with caffeine (25 µL) at different concentrations of the latter, added to the plate and incubated for 1 hour at RT. HRP-labelled avidin (50 µL, 1:5000 dilution) was added and the colour was developed by adding TMB liquid substrate system (50 µL). The reaction was stopped by the addition of 1 M H2SO4 (50 µL) and the absorbance at 450 nm was recorded.
(§3) The same ELISA format was used to test the competition of the BSA-biotin-caffeine conjugate and free caffeine for binding to the anti-caffeine antibody coated on the wells. A fixed amount of BSA-biotin-caffeine conjugate (20 µg/mL) was used and the concentration of free caffeine was varied.
The subject of test [3] is anti-caffeine antibody. Kind of test: Competitive ELISA (free caffeine vs caffeine conjugate). (In general: In an ELISA, binding on a coated surface is turned into a signal by an enzyme label.)
Description: as §1, §2, §3
Test [4] has as its system anti-caffeine antibody. The experiment in a line: Modified competitive lateral flow assay for caffeine with two test lines. It counts as binding, mouse. As to the method: The LFA was assembled using a nitrocellulose membrane attached to a plastic backing card. Anti-caffeine antibody and avidin were immobilised at test lines 1 and 2, respectively, in the detection zone. […] The membrane was dried at RT for 2 hours. The wick was attached to the membrane (2 mm overlap) and the plastic card was cut into strips (5 mm x 60 mm). Glass fibre conjugate pads were soaked in 30% (w/v) sucrose in Milli-Q water and dried in an oven at 37°C. […] The conjugate pad was attached to the membrane and the prepared strips were kept in a desiccator until use.
Different concentrations of caffeine in 2% (w/v) BSA were prepared in respective wells of a low-binding 96-well microplate. The test strips were placed into each well vertically for 3 min, after which they were removed and left to dry. Images of the test strips were taken and analysed by ImageJ software. The grey level of the pixels in each test line was measured and subtracted from the background.
The effects of applying different concentrations of caffeine to the LFA were investigated to determine the working range and sensitivity that can be achieved for caffeine detection. The LFA test strips were prepared according to the design of the assay shown in Figure 3 and run using different concentrations of caffeine ranging from 1 ng/mL to 100 µg/mL. The optimised running buffer included glycerol as an agent to regulate wicking rate, and BSA and Tween-20 as blocking agents to reduce non-specific binding.
As well as visual inspection, the signal intensity of the test lines was analysed using ImageJ software. The signal intensities of test lines 1 and 2 at different caffeine concentrations were plotted in a semi-log graph as shown in Figure 11 (results were measured in triplicates). […] Table 1 - Semi-quantitative analysis of caffeine concentration based on the ratio between the signal intensities of test lines 1 and 2.

[5] abbreviates: strips kept in a desiccator for seven days at room temperature.

SMILES strings stand for the structures. Converted amounts (≈) assume the structure as drawn.

Sequence of avidin (P02701 25-152, species assumed): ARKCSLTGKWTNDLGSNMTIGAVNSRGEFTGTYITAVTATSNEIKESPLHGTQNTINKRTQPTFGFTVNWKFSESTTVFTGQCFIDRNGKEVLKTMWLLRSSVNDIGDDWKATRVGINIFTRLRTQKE

In the case of `O=C(O)c1ccccc1N=Nc1ccc(O)cc1` [HABA, 4'-hydroxyazobenzene-2-carboxylic acid], at avidin, the “binding affinity for avidin” value was 6e+06 M⁻¹.

With `O=C(O)Cc1ccc(O)c([N+](=O)[O-])c1` [NHPA, 3-nitro-4-hydroxyphenylacetic acid], in test [1] (250 ng/ml of NHPA in urine samples (synthetic urine)), the “decrease of the antibody line's intensity” value is “over 90%”. For the same compound, the “threshold of the assay for NHPA detection in urine” value in test [1] (synthetic urine, also printed as 250 ± 80 ng/ml) lay within 170 to 330 ng/mL.

As to `O=C(O)CCCC[C@@H]1SC[C@@H]2NC(=O)N[C@@H]21` [biotin], the “binding affinity for avidin” value on avidin was 1.3e+15 M⁻¹.

In turn, `Cn1c(=O)c2c(ncn2C)n(C)c1=O` [caffeine] had a half-maximal inhibitory concentration (IC50) in the test with anti-caffeine antibody [2] of 7 ng/mL (≈ 0.036 µM). In addition, in the test with anti-caffeine antibody [3] (BSA-biotin-caffeine conjugate (20 µg/mL) as competitor), the “detection limit, determined by the concentration of caffeine that results in 10% inhibition” value is recorded as 0.03 ng/mL. The compound also gave an IC50 value with anti-caffeine antibody [3] (fixed BSA-biotin-caffeine conjugate (20 µg/mL), free caffeine varied, absorbance at 450 nm, dose response fit) of 1 ng/mL (≈ 0.00515 µM). The “IC50 value of test line 1” value in the test with anti-caffeine antibody [4] (anti-caffeine antibody line, signal intensity by ImageJ, triplicates, fresh strips) was determined as 5 ng/mL; with anti-caffeine antibody [4] (setting [5]) it was 3 ng/mL. Also, the “IC50 value of test line 2” value with anti-caffeine antibody [4] (avidin line, signal intensity by ImageJ, triplicates, fresh strips) was found to be 8 ng/mL; in the test with anti-caffeine antibody [4] (setting [5]), 11 ng/mL. Moreover, the visual detection limit came out at 10000 ng/mL in the test with anti-caffeine antibody [4] (test line 1 only (no colour developed), no calibration); 10 ng/mL with anti-caffeine antibody [4] (test line 2, strips stored seven days at room temperature); 10 ng/mL in the test with anti-caffeine antibody [4] (with the second test line (test line 2), fresh strips).

The values are drawn from patent EP4455667B1, “DEVICE FOR DETECTING MOLECULES” (Viscera Technologies Ltd, priority 2023, dated 2024).
